Data taken from patent US9938281B2 (Merck Sharp & Dohme Corp., priority 2012, dated 2018).
pIC50: −log10 of the molar value.

What was measured:
PI3K-delta = target: T1, PI3K-delta (Homo sapiens, UniProt O00329); assay: HTRF PI3K biochemical assay, delta isoform; details: form screened (neutral or TFA salt) given, read-out: PI3Kdelta IC50
T1 construct: purchased Upstate; Millipore 14-604
Source text: HTRF PI3K Biochemical Assay to Measure Intrinsic Potency of Compound Inhibitors
This assay was developed and further optimized from a kit produced by Upstate (Millipore catalog #33-047) and has been configured for HTS and SAR screening. Briefly, this procedure exploits the exquisite specificity and high affinity binding of enzyme reaction substrate phosphatidyl(3,4,5)triphosphate (PIP3) to the GRP1 pleckstrin homology (PH) domain to generate the signal. In the absence of PIP3, an HTRF (Homogeneous Time-Resolved Fluorescence energy transfer) complex is formed consisting of europium (Eu)-labeled anti-GST, GSTtagged GRP1-PH domain, biotin-PIP3 and streptavidin conjugated APC. The native PIP3 produced by PI3-Kinase activity disrupts in a competitive manner the biotin-PIP3 from the PH domain, resulting in the loss of energy transfer (HTRF complex) and a decrease in the signal. The format of this assay is the same for all 4 isoforms of PI3K; the differences lie in the concentration of enzyme used to achieve robust assay window. The alpha, beta, and delta assays are run at 0.5, 1, and 0.3 nM enzymes and the gamma assay is run at 5 nM enzyme. The ATP concentration is 100 uM in the alpha, beta, and delta assays and 50 uM ATP in the gamma assay. All reactions are run at 5 uM PIP2.
Compounds are serially diluted (3-fold in 100% DMSO) across a 384-well polypropylene source plated from column 3 to column 12 and column 13 to column 22, to yield 10 concentration dose response for each test compound. Columns 1, 2, 23 and 24 contain either only DMSO or pharmacological known control inhibitor.
The PI3-Kinase biochemical assay was optimized using the HTRF kit provided by Upstate (Millipore). The assay kit contains six reagents: 1) 4× Reaction Buffer; 2) native PIP2 (substrate); 3) Stop (EDTA); 4) Detection Mix A (Streptavidin-APC); 5) Detection Mix B (Eu-labeled Anti-GST plus GST-tagged PH-domain); 6) Detection Mix C.
PI3Kinase Reaction Buffer is prepared by dilution the stock 1:4 with de-ionized water. […] Enzyme addition and compound pre-incubation are initiated by the addition of 1.25 ul of PI3K (at twice its final concentration) in the 1× reaction buffer to all wells using a BioRaptor. Plates are incubated at room temperature for 15 minutes. Reactions are initiated by addition of 1.25 ul of 2× substrate solution (PIP2 and ATP in 1× reaction buffer) using BioRaptor. Plates are incubated in humidified chamber at room temperature for one hour. Reactions are quenched by addition of 0.625 uL of stop solution to all wells using the BioRaptor. The quenched reactions are then processed to detect product formation by adding 0.625 uL of Detection Solution to all wells using the BioRaptor (Detection mix C, Detection Mix A, and Detection Mix B combined together in an 18:1:1 ratio prepared 2 hours prior to use).
The loss of the HTRF signal is due to the displacement of biotinylated-PIP3 from the PH domain by the PI3K-dependent conversion of PIP2 to PIP3. This loss of signal is nonlinear with respect to both increasing product and time. This non-linear detection will impact accuracy of IC50 calculations; therefore, there is a need for a correction factor to obtain more accurate IC50 values. This correction is derived from a PIP3 standard curve run in a separate assay plate. All data were calculated using the ratio of acceptor (APC) to donor (Europium) fluorescence in each well of the assay plate. […] An IC50 was then calculated fitting the % inhibition data to the equation: % inhibition=min+(Max−min)/1+([inhibitor]/IC50)^n) where min is the % inhibition with inhibitor, max is the signal in DMSO control, and n is the Hill slope.

PI3K-alpha = target: T2, PI3K-alpha (Homo sapiens, UniProt P42336); assay: HTRF PI3K biochemical assay, alpha isoform; details: ratio PI3K-alpha IC50 value / PI3K-delta IC50 value
T2 construct: purchased Upstate; Millipore 14-602
T2 sequence (P42336 whole entry, canonical isoform): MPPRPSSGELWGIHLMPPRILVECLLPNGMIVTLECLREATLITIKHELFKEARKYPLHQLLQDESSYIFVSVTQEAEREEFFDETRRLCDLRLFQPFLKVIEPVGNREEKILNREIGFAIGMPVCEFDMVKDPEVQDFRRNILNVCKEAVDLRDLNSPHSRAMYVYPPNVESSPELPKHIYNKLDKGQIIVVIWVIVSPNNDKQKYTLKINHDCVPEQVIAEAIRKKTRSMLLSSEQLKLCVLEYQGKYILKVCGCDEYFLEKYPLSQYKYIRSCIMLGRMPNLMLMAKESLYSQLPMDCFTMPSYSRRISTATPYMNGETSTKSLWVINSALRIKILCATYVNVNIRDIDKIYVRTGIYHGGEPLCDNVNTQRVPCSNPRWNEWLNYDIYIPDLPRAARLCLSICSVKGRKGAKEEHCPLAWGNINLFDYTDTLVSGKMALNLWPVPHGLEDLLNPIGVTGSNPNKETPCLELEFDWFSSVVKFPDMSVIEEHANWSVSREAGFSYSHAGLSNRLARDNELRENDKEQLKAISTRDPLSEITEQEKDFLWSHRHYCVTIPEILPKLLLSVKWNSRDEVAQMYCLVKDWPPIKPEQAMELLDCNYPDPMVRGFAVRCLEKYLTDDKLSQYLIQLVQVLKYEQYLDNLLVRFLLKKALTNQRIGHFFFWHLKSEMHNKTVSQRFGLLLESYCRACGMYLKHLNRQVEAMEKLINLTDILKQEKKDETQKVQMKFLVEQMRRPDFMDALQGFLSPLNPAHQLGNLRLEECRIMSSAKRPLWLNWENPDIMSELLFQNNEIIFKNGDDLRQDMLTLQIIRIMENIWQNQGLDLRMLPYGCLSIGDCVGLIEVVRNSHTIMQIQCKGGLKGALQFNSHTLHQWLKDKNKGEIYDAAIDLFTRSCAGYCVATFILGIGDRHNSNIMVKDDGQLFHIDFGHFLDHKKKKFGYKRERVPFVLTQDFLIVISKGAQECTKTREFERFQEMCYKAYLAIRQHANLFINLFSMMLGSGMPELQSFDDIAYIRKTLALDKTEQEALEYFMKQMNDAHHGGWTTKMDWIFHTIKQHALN
T2 sequence (P27986 whole entry partner, canonical isoform): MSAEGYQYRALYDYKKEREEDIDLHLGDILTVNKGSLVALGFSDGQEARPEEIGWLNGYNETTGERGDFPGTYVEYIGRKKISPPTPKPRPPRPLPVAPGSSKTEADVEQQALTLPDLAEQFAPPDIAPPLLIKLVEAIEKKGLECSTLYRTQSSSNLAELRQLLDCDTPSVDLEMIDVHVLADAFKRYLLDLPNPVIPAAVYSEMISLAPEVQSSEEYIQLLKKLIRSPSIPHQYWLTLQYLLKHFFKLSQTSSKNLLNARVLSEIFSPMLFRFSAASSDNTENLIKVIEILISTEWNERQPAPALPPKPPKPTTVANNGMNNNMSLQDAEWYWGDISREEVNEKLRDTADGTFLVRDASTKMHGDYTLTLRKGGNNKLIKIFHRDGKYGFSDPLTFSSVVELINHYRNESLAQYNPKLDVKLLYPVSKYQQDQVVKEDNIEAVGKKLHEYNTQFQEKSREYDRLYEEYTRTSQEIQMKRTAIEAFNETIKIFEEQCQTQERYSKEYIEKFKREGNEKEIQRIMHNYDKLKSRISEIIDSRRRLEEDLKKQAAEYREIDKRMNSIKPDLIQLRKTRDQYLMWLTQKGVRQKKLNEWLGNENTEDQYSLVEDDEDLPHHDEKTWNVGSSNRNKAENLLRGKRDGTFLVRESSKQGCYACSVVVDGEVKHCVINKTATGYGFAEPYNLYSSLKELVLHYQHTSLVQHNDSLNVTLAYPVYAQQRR

T1 sequence (O00329 whole entry, canonical isoform): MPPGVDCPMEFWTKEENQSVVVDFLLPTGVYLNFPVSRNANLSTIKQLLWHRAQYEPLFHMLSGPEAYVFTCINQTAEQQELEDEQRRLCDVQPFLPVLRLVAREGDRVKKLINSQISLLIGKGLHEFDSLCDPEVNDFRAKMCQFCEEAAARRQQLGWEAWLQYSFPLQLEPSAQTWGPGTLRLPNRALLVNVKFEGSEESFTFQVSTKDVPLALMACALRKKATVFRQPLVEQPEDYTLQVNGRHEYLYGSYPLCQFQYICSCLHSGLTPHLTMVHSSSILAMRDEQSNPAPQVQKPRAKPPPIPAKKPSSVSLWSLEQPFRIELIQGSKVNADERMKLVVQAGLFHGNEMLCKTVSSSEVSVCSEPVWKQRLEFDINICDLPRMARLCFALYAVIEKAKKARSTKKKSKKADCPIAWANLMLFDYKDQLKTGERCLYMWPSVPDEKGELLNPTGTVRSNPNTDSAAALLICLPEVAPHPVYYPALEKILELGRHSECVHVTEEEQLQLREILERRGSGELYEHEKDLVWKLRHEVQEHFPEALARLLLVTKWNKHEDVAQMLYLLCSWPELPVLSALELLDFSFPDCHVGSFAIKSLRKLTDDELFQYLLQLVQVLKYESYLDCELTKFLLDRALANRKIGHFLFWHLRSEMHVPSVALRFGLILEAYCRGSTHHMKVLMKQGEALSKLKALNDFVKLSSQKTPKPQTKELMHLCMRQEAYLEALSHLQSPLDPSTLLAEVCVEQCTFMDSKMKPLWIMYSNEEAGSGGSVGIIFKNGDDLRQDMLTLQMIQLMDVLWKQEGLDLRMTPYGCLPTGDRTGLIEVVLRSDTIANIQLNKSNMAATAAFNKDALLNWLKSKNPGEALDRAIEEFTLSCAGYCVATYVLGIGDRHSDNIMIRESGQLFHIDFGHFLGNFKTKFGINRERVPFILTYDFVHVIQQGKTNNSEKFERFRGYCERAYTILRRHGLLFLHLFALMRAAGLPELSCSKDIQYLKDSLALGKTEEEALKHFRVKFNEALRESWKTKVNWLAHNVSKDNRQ
T1 sequence (P27986 whole entry partner, canonical isoform): as the sequence (P27986 whole entry partner, canonical isoform) above

pIC50 (PI3K-delta) | Selectivity versus PI3Kalpha (PI3K-alpha) | Structure (SMILES)
7.14 | >10 | CCn1c(C(N)=O)nc2c(N[C@H]3CCN(C(=O)C4CC4)C3)ncnc21 [Compound 6-11, 6-{[(3S)-1-(cyclopropylcarbonyl)pyrrolidin-3-yl]amino}-9-ethyl-9H-purine-8-carboxamide]
7.85 | >10 | CCn1c(-c2cnc(C)nc2)nc2c(N[C@H]3CCN(c4nccc5sccc45)C3)ncnc21 [Compound 4-13, 9-ethyl-8-(2-methylpyrimidin-5-yl)-N-[(3S)-1-thieno[3,2-c]pyridin-4-y 1pyrrolidin-3-yl]-9H-purin-6-amine]
6.10 | >10 | CCn1c(C(=O)N(C)C)nc2c(N[C@H]3CCN(C(=O)C4CC4)C3)ncnc21 [Compound 6-5, 6-{[(3S)-1-(cyclopropylcarbonyl)pyrrolidin-3-yl]amino}-9-ethyl-N,N-dimethyl-9H-purine-8-carboxamide]
8.49 | >10 | CCn1c(C(F)F)nc2c(N[C@H]3CCN(C(=O)N4CC(OC)C4)C3)ncnc21 [Compound 7-28, 8-(difluoromethyl)-9-ethyl-N-{(3S)-1-[(3-methoxyazetidin-1-yl)carbonyl]pyrrolidin-3-yl}-9H-purin-6-amine]
8.11 | >10 | CCn1c(-c2cnc(C)nc2)nc2c(N[C@H]3C[C@H](C(N)=O)N(c4ccccn4)C3)ncnc21 [Compound 15-11, (4S)-4-{[9-ethyl-8-(2-methylpyrimidin-5-yl)-9H-purin-6-yl]amino}-1-pyridin-2-yl-D-prolinamide]
6.11 | >10 | CCn1c(CC(F)(F)F)nc2c(N[C@H]3CCN(C(=O)C4CC4)C3)ncnc21 [Compound 7-7, N-[(3S)-1-(cyclopropylcarbonyl)pyrrolidin-3-yl]-9-ethyl-8-(2,2,2-trifluoroethyl)-9H-purin-6-amine]
7.85 | >10 | CCC(=O)N1CC[C@H](Nc2ncnc3c2nc(C(F)(F)F)n3CC)C1 [Compound 7-11, 9-ethyl-N-[(3S)-1-propanoylpyrrolidin-3-yl]-8-(trifluoromethyl)-9H-purin-6-amine]
6.92 | >10 | CCn1c(-c2cnc(C)nc2)nc2c(N[C@H]3CC[C@@H](C(=O)NC)C3)ncnc21 [Compound 5-7]

Further lines, the compound ahead of its results:

Structure (SMILES) | pIC50 (PI3K-delta) | Selectivity versus PI3Kalpha (PI3K-alpha)
CCC(=O)N1CC[C@H](Nc2ncnc3c2nc(-c2cnc(OC)c(C)c2)n3C)C1 [Compound 2-12, (S)-1-(3-((8-(6-methoxy-5-methylpyridin-3-yl)-9-methyl-9H-purin-6-yl)amino)pyrrolidin-1-yl)propan-1-one] | 8.46 | >10
CCn1c(-c2cnc(OC)c(Cl)c2)nc2c(N[C@H]3CCN(C(=O)C4CC4)C3)ncnc21 [Compound 3-25, 8-(5-chloro-6-methoxypyridin-3-yl)-N-[(3S)-1-(cyclopropylcarbonyl)pyrrolidin-3-yl]-9-ethyl-9H-purin-6-amine] | > 9.00 | >10
CCn1c(-c2ccc(C(F)(F)F)nc2)nc2c(N[C@H]3CCN(C(=O)OC(C)(C)C)C3)ncnc21 [Compound 1-22, tert-butyl (3S)-3-({9-ethyl-8-[6-(trifluoromethyl)pyridin-3-yl]-9H-purin-6-yl}amino)pyrrolidine-1-carboxylate] | > 9.00 | >10
CCn1c(-c2cnc(C)nc2)nc2c(N[C@H]3CCN(C(=O)c4nc(C)oc4C)C3)ncnc21 [Compound 2-19, (S)-(2,5-dimethyloxazol-4-yl)(3-((9-ethyl-8-(2-methylpyrimidin-5-yl)-9H-purin-6-yl)amino)pyrrolidin-1-yl)methanone] | 8.68 | >10
CCn1c(-c2cnc(OC)c(C)c2)nc2c(N(C)[C@H]3CCN(C(=O)OC(C)(C)C)C3)ncnc21 [Compound 1-4, (S)-tert-butyl 3-((9-ethyl-8-(6-methoxy-5-methylpyridin-3-yl)-9H-purin-6-yl)(methyl)amino)pyrrolidine-1-carboxylate] | 8.77 | >10
CCn1c(-c2cnc(OC)c(F)c2)nc2c(N[C@H]3CCN(C(=O)c4cocn4)C3)ncnc21 [Compound 3A-1, 9-ethyl-8-(5-fluoro-6-methoxypyridin-3-yl)-N-[(3S)-1-(1,3-oxazol-4-ylcarbonyl)pyrrolidin-3-yl]-9H-purin-6-amine] | 9.00 | >10
CCn1c(-c2cnc(C)nc2)nc2c(NC3CN(C(=O)OC(C)(C)C)CC3(F)F)ncnc21 (racemic) [Compound 1-21, (R and S)-tert-butyl 4-{[9-ethyl-8-(2-methylpyrimidin-5-yl)-9H-purin-6-yl]amino}-3,3-difluoropyrrolidine-1-carboxylate] | 8.03 | >10
CCn1c(-c2cnc(C)nc2)nc2c(N(C)[C@H]3CCN(C(=O)[C@H]4CC[C@@H](O)CC4)C3)ncnc21 [Compound 2-100, cis-4-{[(3S)-3-{[9-ethyl-8-(2-methylpyrimidin-5-yl)-9H-purin-6-yl](methyl)amino}pyrrolidin-1-yl]carbonyl}cyclohexanol] | 8.20 | >10
CCn1ncc(-c2nc3c(N[C@H]4CCN(C(=O)c5nc(C)oc5C)C4)ncnc3n2C)c1C [Compound 2-5, N-{(3S)-1-[(2,5-dimethyl-1,3-oxazol-4-yl)carbonyl]pyrrolidin-3-yl}-8-(1-ethyl-5-methyl-1H-pyrazol-4-yl)-9-methyl-9H-purin-6-amine] | 8.82 | >10
CCn1c(-c2cnc(C)nc2)nc2c(N[C@H]3CCN(C(=O)[C@@H]4CCCN4C)C3)ncnc21 [Compound 2-43, 9-ethyl-N-[(3S)-1-(1-methyl-L-prolyl)pyrrolidin-3-yl]-8-(2-methylpyrimidin-5-yl)-9H-purin-6-amine] | 7.80 | >10
CCn1c(-c2cnc(C)nc2)nc2c(NC3CN(C(=O)OC(C)(C)C)CC3O)ncnc21 (racemic) [Compound 1-15, ((3R,4R) and (3S,4S))-tert-butyl 3-{[9-ethyl-8-(2-methylpyrimidin-5-yl)-9H-purin-6-yl]amino}-4-hydroxypyrrolidine-1-carboxylate] | 8.00 | >10
CCC(=O)N1CC[C@H](Nc2ncnc3c2nc(-c2ccc(OC)c(C)c2)n3C)C1 [Compound 3-32, 8-(4-methoxy-3-methylphenyl)-9-methyl-N-[(3S)-1-propanoylpyrrolidin-3-yl]-9H-purin-6-amine] | 8.72 | >10
CCn1c(-c2cnc(C)nc2)nc2c(N[C@H]3CCN(C(=O)C4C5CCNC54)C3)ncnc21 (mixture of isomers) [Compound 2-85, N-[(3S)-1-(1(R and S), 5(R and S), 6(R and S)-2-azabicyclo[3.1.0]hex-6-ylcarbonyl)pyrrolidin-3-yl]-9-ethyl-8-(2-methylpyrimidin-5-yl)-9H-purin-6-amine] | 8.14 | >10
CCC(=O)N1CC[C@H](Nc2ncnc3c2nc(-c2cnc(C)nc2)n3CC)C1 [Compound 2-17, (S)-1-(3-((9-ethyl-8-(2-methylpyrimidin-5-yl)-9H-purin-6-yl)amino)pyrrolidin-1-yl)propan-1-one] | 8.57 | >10
CCn1c(-c2ccc(C(F)(F)F)nc2)nc2c(N[C@H]3CCN(C(=O)C4CCCO4)C3)ncnc21 (single isomer, unassigned) [Compound 2-104, 9-ethyl-N-{(3S)-1-[(2R or 2S)-tetrahydrofuran-2-ylcarbonyl]pyrrolidin-3-yl}-8-[6-(trifluoromethyl)pyridin-3-yl]-9H-purin-6-amine] | 8.47 | >10
CCC(=O)N1CC[C@H](Nc2ncnc3c2nc(-c2cnc4[nH]ccc4c2)n3C)C1 [Compound 3-2, (S)-1-(3-((9-methyl-8-(1H-pyrrolo[2,3-b]pyridin-5-yl)-9H-purin-6-yl)amino)pyrrolidin-1-yl)propan-1-one] | > 9.00 | >10
CCn1c(-c2cnc(C)nc2)nc2c(N[C@H]3CCN(C(=O)c4cnn(C)c4)C3)ncnc21 [Compound 2-73, 9-ethyl-N-{(3S)-1-[(1-methyl-1H-pyrazol-4-yl)carbonyl]pyrrolidin-3-yl}-8-(2-methylpyrimidin-5-yl)-9H-purin-6-amine] | 8.38 | >10
CCn1c(-c2cnc(C)nc2)nc2c(N[C@H]3CCN(C(=O)C4CCNCC4)C3)ncnc21 [Compound 2-78, 9-ethyl-8-(2-methylpyrimidin-5-yl)-N-[(3S)-1-(piperidin-4-ylcarbonyl)pyrrolidin-3-yl]-9H-purin-6-amine] | 8.34 | >10
CCC(=O)N1CC(Nc2ncnc3c2nc(-c2cnn(CC)c2C)n3C)C1 [Compound 2-45, 8-(1-ethyl-5-methyl-1H-pyrazol-4-yl)-9-methyl-N-(1-propanoylazetidin-3-yl)-9H-purin-6-amine] | 7.24 | >10
CCC(=O)N1CC[C@H](Nc2ncnc3c2nc(-c2ccc(S(C)(=O)=O)cc2)n3C)C1 [Compound 3-27, 9-methyl-8-[4-(methylsulfonyl)phenyl]-N-[(3S)-1-propanoylpyrrolidin-3-yl]-9H-purin-6-amine] | 7.41 | >10
CCn1c(-c2cnc(C)nc2)nc2c(N[C@H]3CCN(C(=O)C4NC(=O)C4(C)C)C3)ncnc21 (mixture of isomers) [Compound 2-67, (R and S)-4-{[(3S)-3-{[9-ethyl-8-(2-methylpyrimidin-5-yl)-9H-purin-6-yl]amino}pyrrolidin-1-yl]carbonyl}-3,3-dimethylazetidin-2-one] | 8.82 | >10
CCn1c(-c2cnc(CO)nc2)nc2c(N[C@H]3CCN(C(=O)C4CC4)C3)ncnc21 [Compound 3-39, [5-(6-{[(3S)-1-(cyclopropylcarbonyl)pyrrolidin-3-yl]amino}-9-ethyl-9H-purin-8-yl)pyrimidin-2-yl]methanol] | 8.47 | >10
